Measured values reported in ChEMBL document CHEMBL5579896, “Discovery of 2-Aryl-4-aminoquinazolin-Based LSD1 Inhibitors to Activate Immune Response in Gastric Cancer” (J Med Chem, 2024).
Calls of active or inactive are those of the source. No cut-off for these calls is given here.

Key:
[1] = Toxicity in mouse implanted with MFC assessed as kidney damage at 10 to 40 mg/kg/day, po administered daily for 2 weeks and measured every 2 days by H and E staining based assay; assay type: organism-based; conditions: in vivo, 336 h, dose 10-40 mg/kg/day
[2] = molecular target: T1, Lysine-specific histone demethylase 2 (Homo sapiens) (UniProt Q8NB78); experiment: Inhibition of LSD2 (unknown origin) at 10 uM relative to control
T1 sequence (whole entry): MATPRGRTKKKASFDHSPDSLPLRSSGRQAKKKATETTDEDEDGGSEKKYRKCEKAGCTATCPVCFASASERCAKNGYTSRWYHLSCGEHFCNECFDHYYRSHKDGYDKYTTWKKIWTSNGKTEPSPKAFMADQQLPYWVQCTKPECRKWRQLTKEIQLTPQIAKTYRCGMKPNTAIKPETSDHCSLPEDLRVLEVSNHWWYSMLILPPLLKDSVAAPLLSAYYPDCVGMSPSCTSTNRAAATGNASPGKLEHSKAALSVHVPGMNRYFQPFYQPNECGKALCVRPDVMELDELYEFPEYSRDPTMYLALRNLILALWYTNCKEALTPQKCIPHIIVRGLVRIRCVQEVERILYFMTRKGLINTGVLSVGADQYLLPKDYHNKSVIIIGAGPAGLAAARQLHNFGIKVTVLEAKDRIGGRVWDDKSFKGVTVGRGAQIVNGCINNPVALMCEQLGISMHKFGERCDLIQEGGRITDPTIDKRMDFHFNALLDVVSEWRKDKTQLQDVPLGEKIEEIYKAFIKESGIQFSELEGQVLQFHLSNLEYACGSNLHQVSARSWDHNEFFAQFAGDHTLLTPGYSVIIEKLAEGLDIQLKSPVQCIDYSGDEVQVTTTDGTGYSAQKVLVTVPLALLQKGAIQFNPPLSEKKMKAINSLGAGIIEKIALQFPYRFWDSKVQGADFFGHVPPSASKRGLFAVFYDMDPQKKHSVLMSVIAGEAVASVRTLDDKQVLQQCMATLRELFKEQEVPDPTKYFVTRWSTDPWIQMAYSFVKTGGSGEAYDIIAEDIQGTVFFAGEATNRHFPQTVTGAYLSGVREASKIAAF

[3] = test system: MFC; experiment: Downregulation of PD-L1 expression in MFC cells at 2 to 8 uM by Western blotting analysis; assay type: functional, cell-based; conditions: Mus musculus, dose 2-8 µM, TDE = time-dependent effect
[4] = test system: BGC-823; experiment: Downregulation of PD-L1 expression in human BGC-823 cells incubated for 5 days by Western blotting analysis; assay type: functional, cell-based; conditions: dose 2-8 µM, time 5.0 day
[5] = Cmax in ICR mouse at 40 mg/kg, po measured upto 24 hrs by LC-MS/MS analysis; assay type: ADME, organism-based; conditions: in vivo
[6] = molecular target: T2, Amine oxidase [flavin-containing] A (Homo sapiens, UniProt P21397); experiment: Inhibition of MAO-A (unknown origin)
T2 sequence (P21397 whole entry): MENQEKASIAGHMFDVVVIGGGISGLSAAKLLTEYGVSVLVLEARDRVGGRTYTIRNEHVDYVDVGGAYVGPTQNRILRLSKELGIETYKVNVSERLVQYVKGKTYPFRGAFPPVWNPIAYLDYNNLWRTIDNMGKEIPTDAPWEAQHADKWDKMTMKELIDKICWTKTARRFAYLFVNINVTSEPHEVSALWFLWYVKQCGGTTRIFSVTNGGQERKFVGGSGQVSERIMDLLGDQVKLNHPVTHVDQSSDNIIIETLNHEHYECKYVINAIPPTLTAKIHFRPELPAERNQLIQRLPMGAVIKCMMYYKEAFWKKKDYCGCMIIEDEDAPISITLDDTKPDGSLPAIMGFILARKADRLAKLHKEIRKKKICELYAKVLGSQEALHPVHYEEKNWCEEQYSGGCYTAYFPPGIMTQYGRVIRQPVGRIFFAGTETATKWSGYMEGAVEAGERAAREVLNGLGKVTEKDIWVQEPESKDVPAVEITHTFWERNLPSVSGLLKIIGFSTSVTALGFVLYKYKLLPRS

[7] = Toxicity in mouse implanted with MFC assessed as heart damage at 10 to 40 mg/kg/day, po administered daily for 2 weeks and measured every 2 days by H and E staining based assay; assay type: organism-based; conditions: in vivo, 336 h, dose 10-40 mg/kg/day
[8] = test system: BGC-823; experiment: Anticancer activity against human BGC-823 cells cocultured with human monocytes assessed as increase in CD3/CD28 activated T-cell killing response incubated for 5 days by microscopic analysis; assay type: functional, cell-based; conditions: dose 2-8 µM, time 5.0 day
[9] = Toxicity in mouse implanted with MFC assessed as reduction in body weight at 10 to 40 mg/kg/day, po administered daily for 2 weeks and measured every 2 days; assay type: organism-based; conditions: in vivo, 336 h, dose 10-40 mg/kg/day
[10] = test system: MFC; experiment: Antitumor activity against MFC cells implanted in mouse assessed as reduction in tumor growth at 10 to 40 mg/kg/day, po administered daily for 2 weeks and measured every 2 days; assay type: functional, organism-based; conditions: dose 10-40 mg/kg/day
[11] = test system: MFC; experiment: Antitumor activity against MFC cells implanted in mouse assessed as increase in infiltration of CD4+ cells at 10 to 40 mg/kg/day, po administered daily for 2 weeks and measured every 2 days by immunohistochemistry assay; assay type: functional, organism-based; conditions: dose 10-40 mg/kg/day
[12] = test system: MFC; experiment: Antitumor activity against MFC cells implanted in mouse assessed as reduction in Ki67 expression at 10 to 40 mg/kg/day, po administered daily for 2 weeks and measured every 2 days; assay type: functional, organism-based; conditions: dose 10-40 mg/kg/day
[13] = test system: BGC-823; experiment: Effect on H3K4me1 methylation in LSD1 knockout human BGC-823 cells at 2 to 8 uM by Western blotting analysis; assay type: functional, cell-based; conditions: dose 2-8 µM
[14] = Half-life in ICR mouse at 40 mg/kg, po measured upto 24 hrs by LC-MS/MS analysis; assay type: ADME, organism-based; conditions: in vivo
[15] = molecular target: Epidermal growth factor receptor (Homo sapiens) (UniProt P00533); experiment: Inhibition of EGFR (unknown origin)
Chain of Epidermal growth factor receptor (Homo sapiens) (P00533 whole entry): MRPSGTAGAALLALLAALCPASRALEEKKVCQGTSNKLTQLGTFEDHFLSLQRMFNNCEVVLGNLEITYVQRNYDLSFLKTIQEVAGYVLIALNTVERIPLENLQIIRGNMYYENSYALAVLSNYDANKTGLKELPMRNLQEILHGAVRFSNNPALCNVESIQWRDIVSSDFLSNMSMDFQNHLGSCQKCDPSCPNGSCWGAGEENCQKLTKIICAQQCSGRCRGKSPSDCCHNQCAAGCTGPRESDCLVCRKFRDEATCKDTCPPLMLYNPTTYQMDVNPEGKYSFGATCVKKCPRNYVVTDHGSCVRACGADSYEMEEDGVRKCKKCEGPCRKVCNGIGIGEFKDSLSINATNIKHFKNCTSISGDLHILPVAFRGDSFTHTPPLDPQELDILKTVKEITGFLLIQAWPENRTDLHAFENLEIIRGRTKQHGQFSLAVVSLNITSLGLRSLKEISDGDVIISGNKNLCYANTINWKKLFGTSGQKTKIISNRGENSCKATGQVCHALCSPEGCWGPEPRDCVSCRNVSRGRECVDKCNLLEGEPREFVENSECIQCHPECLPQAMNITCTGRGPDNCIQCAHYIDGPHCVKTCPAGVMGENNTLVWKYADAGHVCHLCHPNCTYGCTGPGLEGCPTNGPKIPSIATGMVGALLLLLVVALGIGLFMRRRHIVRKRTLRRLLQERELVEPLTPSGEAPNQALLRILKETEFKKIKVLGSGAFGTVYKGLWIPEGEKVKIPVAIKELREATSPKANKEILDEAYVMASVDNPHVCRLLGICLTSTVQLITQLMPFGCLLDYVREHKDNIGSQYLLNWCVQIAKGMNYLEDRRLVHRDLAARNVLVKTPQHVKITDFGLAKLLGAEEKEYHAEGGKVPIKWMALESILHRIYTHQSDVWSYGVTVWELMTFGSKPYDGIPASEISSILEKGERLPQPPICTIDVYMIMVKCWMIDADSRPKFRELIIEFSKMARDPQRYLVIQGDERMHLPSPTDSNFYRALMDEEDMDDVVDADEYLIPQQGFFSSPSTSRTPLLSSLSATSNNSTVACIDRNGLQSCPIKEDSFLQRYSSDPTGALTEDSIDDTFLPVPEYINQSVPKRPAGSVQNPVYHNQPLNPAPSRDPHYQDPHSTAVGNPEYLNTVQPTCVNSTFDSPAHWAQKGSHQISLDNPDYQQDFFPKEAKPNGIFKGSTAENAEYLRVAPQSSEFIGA

[16] = Toxicity in mouse implanted with MFC assessed as lung damage at 10 to 40 mg/kg/day, po administered daily for 2 weeks and measured every 2 days by H and E staining based assay; assay type: organism-based; conditions: in vivo, 336 h, dose 10-40 mg/kg/day
[17] = test system: BGC-823; experiment: Downregulation of PD-L1 expression in LSD1 knockout human BGC-823 cells at 2 to 8 uM incubated for 5 days by flow cytometry analysis; assay type: functional, cell-based; conditions: dose 2-8 µM, time 5.0 day
[18] = test system: MFC; experiment: Antitumor activity against MFC cells implanted in mouse assessed as increase in infiltration of CD8+ cells at 10 to 40 mg/kg/day, po administered daily for 2 weeks and measured every 2 days by immunohistochemistry assay; assay type: functional, organism-based; conditions: dose 10-40 mg/kg/day
[19] = Toxicity in mouse implanted with MFC assessed as spleen damage at 10 to 40 mg/kg/day, po administered daily for 2 weeks and measured every 2 days by H and E staining based assay; assay type: organism-based; conditions: in vivo, 336 h, dose 10-40 mg/kg/day

inhibition [2]: < 10% | Cmax [5]: 613 ng/mL | IC50 [6]: > 10 µM | half-life [14]: 1.22 h | inhibition [15]: inactive
SMILES: CCN(CC)c1ccc(Nc2nc(-c3ccc(S(C)(=O)=O)cc3)nc3ccccc23)cc1
Activity [1]: Non-Toxic | Activity [3]: Tde | Activity [4]: Dose-Dependent Effect | Activity [7]: Non-Toxic | Activity [8]: Dose-Dependent Effect | Activity [9]: Non-Toxic | Activity [10]: Active | Activity [11]: Active | Activity [12]: Active | Activity [13]: inactive | Activity [16]: Non-Toxic | Activity [17]: inactive | Activity [18]: Active | Activity [19]: Non-Toxic
